Activity calls are given as the source filed them. The calls are words filed in the database; no cut-off is given here.
How the values were obtained:
[1] = system: A549; assay: Cytotoxicity against human A549 cells assessed as reduction in cell viability at low concentration incubated for 72 hrs by MTT assay; type: functional, cell-based
[2] = target: T1, Mineralocorticoid receptor (Homo sapiens) (UniProt P08235); assay: Antagonist activity at mineralocorticoid receptor in human PC-3 cells assessed as reduction in aldosterone-induced luciferase activity at 10 uM by dual-Glo luciferase assay; type: cell-based
T1 sequence (whole entry): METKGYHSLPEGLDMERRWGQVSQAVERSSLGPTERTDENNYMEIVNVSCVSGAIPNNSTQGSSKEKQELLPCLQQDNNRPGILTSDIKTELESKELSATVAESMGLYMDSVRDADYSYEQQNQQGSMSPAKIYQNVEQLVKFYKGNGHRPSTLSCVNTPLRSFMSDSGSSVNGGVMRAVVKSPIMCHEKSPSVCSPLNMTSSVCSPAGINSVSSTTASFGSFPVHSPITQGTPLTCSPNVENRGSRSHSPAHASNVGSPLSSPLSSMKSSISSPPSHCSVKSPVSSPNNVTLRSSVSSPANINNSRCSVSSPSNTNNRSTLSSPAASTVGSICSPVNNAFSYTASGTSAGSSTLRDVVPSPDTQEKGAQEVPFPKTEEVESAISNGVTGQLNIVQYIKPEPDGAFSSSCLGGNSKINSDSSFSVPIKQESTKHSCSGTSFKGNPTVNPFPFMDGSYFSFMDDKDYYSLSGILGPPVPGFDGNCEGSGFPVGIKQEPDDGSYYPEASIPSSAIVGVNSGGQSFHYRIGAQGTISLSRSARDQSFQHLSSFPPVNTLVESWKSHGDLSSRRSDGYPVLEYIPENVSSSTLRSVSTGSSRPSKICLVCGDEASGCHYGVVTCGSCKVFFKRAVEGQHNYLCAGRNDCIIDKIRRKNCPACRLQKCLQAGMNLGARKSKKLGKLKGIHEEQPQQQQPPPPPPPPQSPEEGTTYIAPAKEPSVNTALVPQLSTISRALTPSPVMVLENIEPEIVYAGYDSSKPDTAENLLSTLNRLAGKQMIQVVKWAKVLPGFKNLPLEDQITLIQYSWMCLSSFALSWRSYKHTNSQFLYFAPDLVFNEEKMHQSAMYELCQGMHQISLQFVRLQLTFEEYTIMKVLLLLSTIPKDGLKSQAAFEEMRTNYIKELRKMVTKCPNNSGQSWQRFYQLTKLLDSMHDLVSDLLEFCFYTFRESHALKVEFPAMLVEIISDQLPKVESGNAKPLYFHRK

[3] = target: T2, Androgen receptor (Homo sapiens) (UniProt P10275); assay: Antagonist activity at androgen receptor in human LNCaP cells assessed as reduction in DHT-induced TMPRSS2 mRNA expression after 48 hrs by SYBR green dye based qPCR analysis; type: cell-based; details: filed as antagonist, dose 0.1-10 µM
T2 sequence (whole entry): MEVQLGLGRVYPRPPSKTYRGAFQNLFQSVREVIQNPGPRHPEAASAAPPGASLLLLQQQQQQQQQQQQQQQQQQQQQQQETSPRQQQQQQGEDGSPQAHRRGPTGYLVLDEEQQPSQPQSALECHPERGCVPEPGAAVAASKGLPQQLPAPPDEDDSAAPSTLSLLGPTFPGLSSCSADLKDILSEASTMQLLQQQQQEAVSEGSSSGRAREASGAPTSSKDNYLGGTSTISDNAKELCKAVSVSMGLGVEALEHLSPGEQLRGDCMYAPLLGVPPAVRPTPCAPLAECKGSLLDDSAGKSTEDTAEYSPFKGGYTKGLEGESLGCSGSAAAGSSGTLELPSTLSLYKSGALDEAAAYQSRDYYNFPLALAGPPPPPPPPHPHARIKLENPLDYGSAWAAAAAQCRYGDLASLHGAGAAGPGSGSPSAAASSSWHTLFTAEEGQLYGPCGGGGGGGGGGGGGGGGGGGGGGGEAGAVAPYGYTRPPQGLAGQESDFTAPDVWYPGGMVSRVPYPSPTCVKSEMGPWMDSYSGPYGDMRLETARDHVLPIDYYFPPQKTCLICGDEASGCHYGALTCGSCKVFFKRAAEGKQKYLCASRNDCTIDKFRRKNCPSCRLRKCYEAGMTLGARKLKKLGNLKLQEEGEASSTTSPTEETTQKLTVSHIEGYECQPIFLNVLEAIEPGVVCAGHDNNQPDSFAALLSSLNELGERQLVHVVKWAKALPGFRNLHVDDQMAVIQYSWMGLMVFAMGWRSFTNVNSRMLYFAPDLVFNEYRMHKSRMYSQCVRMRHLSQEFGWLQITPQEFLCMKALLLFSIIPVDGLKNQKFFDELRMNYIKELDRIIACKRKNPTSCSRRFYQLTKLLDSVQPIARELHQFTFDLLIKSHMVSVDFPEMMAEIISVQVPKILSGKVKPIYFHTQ

[4] = target: T3, Glucocorticoid receptor (Homo sapiens, UniProt P04150); assay: Antagonist activity at glucocorticoid receptor in human HeLa cells assessed as reduction in dexamethasone-induced luciferase activity by dual-Glo luciferase assay; type: cell-based
T3 sequence (P04150 whole entry): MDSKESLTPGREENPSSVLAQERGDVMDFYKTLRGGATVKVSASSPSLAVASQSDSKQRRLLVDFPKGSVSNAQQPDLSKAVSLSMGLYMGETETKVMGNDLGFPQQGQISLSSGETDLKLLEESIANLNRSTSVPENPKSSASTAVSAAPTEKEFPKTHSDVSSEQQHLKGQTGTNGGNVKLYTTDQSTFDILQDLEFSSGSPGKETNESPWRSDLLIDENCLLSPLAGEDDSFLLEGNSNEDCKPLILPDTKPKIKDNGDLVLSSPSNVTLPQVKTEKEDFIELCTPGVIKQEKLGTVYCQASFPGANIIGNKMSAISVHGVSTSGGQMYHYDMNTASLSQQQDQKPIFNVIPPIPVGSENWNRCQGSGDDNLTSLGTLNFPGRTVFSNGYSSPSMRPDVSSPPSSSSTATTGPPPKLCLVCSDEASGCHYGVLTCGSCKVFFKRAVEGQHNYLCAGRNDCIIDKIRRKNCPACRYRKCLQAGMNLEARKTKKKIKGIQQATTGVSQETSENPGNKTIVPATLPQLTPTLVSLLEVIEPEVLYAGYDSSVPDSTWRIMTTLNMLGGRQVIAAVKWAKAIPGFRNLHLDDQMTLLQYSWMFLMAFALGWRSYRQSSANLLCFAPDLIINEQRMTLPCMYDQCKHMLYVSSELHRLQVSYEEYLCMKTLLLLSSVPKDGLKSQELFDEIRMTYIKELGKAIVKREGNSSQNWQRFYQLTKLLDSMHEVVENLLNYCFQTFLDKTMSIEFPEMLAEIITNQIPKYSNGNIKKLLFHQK

[5] = system: HeLa; assay: Cytotoxicity against human HeLa cells assessed as reduction in cell viability at 50 uM incubated for 72 hrs by MTT assay; type: functional, cell-based
[6] = target: T1, Mineralocorticoid receptor (Homo sapiens); assay: Agonist activity at mineralocorticoid receptor in human PC-3 cells by dual-Glo luciferase assay; type: cell-based
[7] = system: MCF7; assay: Cytotoxicity against human MCF7 cells assessed as reduction in cell viability at 50 uM incubated for 72 hrs by MTT assay; type: functional, cell-based
[8] = system: DU-145; assay: Cytotoxicity against human DU-145 cells assessed as reduction in cell viability incubated for 72 hrs by MTT assay; type: functional, cell-based

Activity [2]: inactive | Activity [3]: Dose-dependent effect | IC50 [4]: > 10 µM | Activity [6]: inactive
SMILES: O=c1cc(C(F)(F)F)c2ccc(OCc3ccc(Br)cc3)cc2o1
Activity [1]: inactive | Activity [5]: Active | Activity [7]: Active | Activity [8]: Active

Source: ChEMBL document CHEMBL5055679, “Discovery of a Novel Androgen Receptor Antagonist Manifesting Evidence to Disrupt the Dimerization of the Ligand-Binding Domain via Attenuating the Hydrogen-Bonding Network Between the Two Monomers” (J Med Chem, 2021)
